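48-hour exposure; five concentrations; linearly interpolated endpoints. GI50: concentration for 50% inhibition of growth. TGI is the concentration that stops growth completely.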
Assays:
Assay in all cases: NCI anticancer screen, dose series, 48 h
MOLT-4 leukemia = tested on: MOLT-4 leukemia
HCC-2998 colon = tested on: HCC-2998 colon
KM12 colon = tested on: KM12 colon
SK-MEL-28 melanoma = tested on: SK-MEL-28 melanoma
COLO 205 colon = tested on: COLO 205 colon
LOX IMVI melanoma = tested on: LOX IMVI melanoma
SK-OV-3 ovarian = tested on: SK-OV-3 ovarian
TK-10 renal = tested on: TK-10 renal
U251 CNS = tested on: U251 CNS
SNB-75 CNS = tested on: SNB-75 CNS

For `COc1cnc2c(c1)C(=O)c1c-2n(CCCN2CCC(O)CC2)c(=O)c2cc(Cl)ccc12`, which GI50 (MOLT-4 leukemia) is on record?
Its GI50 is 74.5 nM.

What about the TGI (MOLT-4 leukemia) of the same molecule?
The TGI was 5.34 µM.

What about the GI50 (HCC-2998 colon) of the same molecule?
The GI50 was 1590 nM.

What about the TGI (HCC-2998 colon) of the same molecule?
Its TGI is 11.1 µM.

And the GI50 (KM12 colon)?
The GI50 was 1.43 µM.

And the TGI (KM12 colon)?
The TGI was 3.64 µM.

And the GI50 (SK-MEL-28 melanoma)?
Its GI50 is 16.7 µM.

And the TGI (SK-MEL-28 melanoma)?
The TGI was 35.7 µM.

And the GI50 (COLO 205 colon)?
Its GI50 is 661 nM.

And the TGI (COLO 205 colon)?
Its TGI is 2.64 µM.

What about the GI50 (LOX IMVI melanoma) of the same molecule?
The GI50 was 75.8 nM.

And the TGI (LOX IMVI melanoma)?
The TGI was 1.46 µM.

And the GI50 (SK-OV-3 ovarian)?
Its GI50 is 341 nM.

And the TGI (SK-OV-3 ovarian)?
The TGI was 17.5 µM.

And the GI50 (TK-10 renal)?
Its GI50 is 13 µM.

What about the TGI (TK-10 renal) of the same molecule?
The TGI was 28.7 µM.

And the GI50 (U251 CNS)?
Its GI50 is 0.0904 µM.

And the TGI (U251 CNS)?
Its TGI is 1.7 µM.

What about the GI50 (SNB-75 CNS) of the same molecule?
Its GI50 is 10.4 µM.

And the TGI (SNB-75 CNS)?
The TGI was 24.6 µM.

For `Cc1ccc(-n2nnnc2-c2cnc(N3CCOCC3)nc2-c2cccc(C(F)(F)F)c2)cc1`, which GI50 (MOLT-4 leukemia) is on record?
Its GI50 is 2180 nM.

And the TGI (MOLT-4 leukemia)?
The TGI was greater than 10.4 µM.

What about the GI50 (HCC-2998 colon) of the same molecule?
The GI50 was 992 nM.

What about the TGI (HCC-2998 colon) of the same molecule?
Its TGI is 2.17 µM.

What about the GI50 (KM12 colon) of the same molecule?
Its GI50 is 1.26 µM.

What about the TGI (KM12 colon) of the same molecule?
The TGI was 3.59 µM.

And the GI50 (SK-MEL-28 melanoma)?
The GI50 was 14.4 µM.

And the TGI (SK-MEL-28 melanoma)?
Its TGI is greater than 50 µM.

What about the GI50 (COLO 205 colon) of the same molecule?
Its GI50 is 1810 nM.

And the TGI (COLO 205 colon)?
The TGI was greater than 13.5 µM.

What about the GI50 (LOX IMVI melanoma) of the same molecule?
The GI50 was 2530 nM.

What about the TGI (LOX IMVI melanoma) of the same molecule?
The TGI was 7.53 µM.

What about the GI50 (SK-OV-3 ovarian) of the same molecule?
Its GI50 is 1480 nM.

And the TGI (SK-OV-3 ovarian)?
The TGI was greater than 13.3 µM.

And the GI50 (TK-10 renal)?
Its GI50 is 1.54 µM.

And the TGI (TK-10 renal)?
The TGI was 4.56 µM.

What about the GI50 (U251 CNS) of the same molecule?
Its GI50 is 3.52 µM.

And the TGI (U251 CNS)?
The TGI was greater than 10.6 µM.

And the GI50 (SNB-75 CNS)?
Its GI50 is 1.6 µM.

And the TGI (SNB-75 CNS)?
The TGI was 3.98 µM.

What does the source list for `CC(=O)c1ccc(NC(=O)COC(=O)c2cccc3c(=O)c4ccccc4[nH]c23)cc1`?
TGI (MOLT-4 leukemia): > 100 µM; TGI (HCC-2998 colon): > 100 µM; TGI (KM12 colon): > 100 µM; TGI (SK-MEL-28 melanoma): > 100 µM; TGI (COLO 205 colon): > 100 µM; TGI (LOX IMVI melanoma): 51.5 µM; TGI (SK-OV-3 ovarian): > 100 µM; TGI (TK-10 renal): 60.6 µM; TGI (U251 CNS): 86.5 µM; TGI (SNB-75 CNS): 31.5 µM

For `Cn1cc(C2=C(Nc3ccccc3)C(=O)NC2=O)c2ccccc21`, which GI50 (MOLT-4 leukemia) is on record?
The GI50 was greater than 23100 nM.

And the TGI (MOLT-4 leukemia)?
Its TGI is greater than 25 µM.

What about the GI50 (HCC-2998 colon) of the same molecule?
The GI50 was greater than 25000 nM.

What about the TGI (HCC-2998 colon) of the same molecule?
The TGI was greater than 25 µM.

What about the GI50 (KM12 colon) of the same molecule?
Its GI50 is 17 µM.

What about the TGI (KM12 colon) of the same molecule?
Its TGI is greater than 25 µM.

And the GI50 (SK-MEL-28 melanoma)?
The GI50 was greater than 25 µM.

And the TGI (SK-MEL-28 melanoma)?
The TGI was greater than 25 µM.

What about the GI50 (COLO 205 colon) of the same molecule?
Its GI50 is greater than 25000 nM.

What about the TGI (COLO 205 colon) of the same molecule?
Its TGI is greater than 25 µM.

What about the GI50 (LOX IMVI melanoma) of the same molecule?
Its GI50 is greater than 25000 nM.

And the TGI (LOX IMVI melanoma)?
Its TGI is greater than 25 µM.

And the GI50 (SK-OV-3 ovarian)?
The GI50 was greater than 25000 nM.

What about the TGI (SK-OV-3 ovarian) of the same molecule?
The TGI was greater than 25 µM.

What about the GI50 (TK-10 renal) of the same molecule?
The GI50 was greater than 25 µM.

What about the TGI (TK-10 renal) of the same molecule?
Its TGI is greater than 25 µM.

What about the GI50 (U251 CNS) of the same molecule?
Its GI50 is greater than 25 µM.

What about the TGI (U251 CNS) of the same molecule?
Its TGI is greater than 25 µM.

And the GI50 (SNB-75 CNS)?
Its GI50 is greater than 25 µM.

What about the TGI (SNB-75 CNS) of the same molecule?
The TGI was greater than 25 µM.

Which results are given for `CCSC[C@@H]1C[C@](O)(c2ccc(F)cc2)[C@@H](c2ccc(F)cc2)O1`?
GI50 (MOLT-4 leukemia): 3210 nM; TGI (MOLT-4 leukemia): 11.1 µM; GI50 (HCC-2998 colon): 18800 nM; TGI (HCC-2998 colon): 36.6 µM; GI50 (KM12 colon): 19.4 µM; TGI (KM12 colon): 41.3 µM; GI50 (SK-MEL-28 melanoma): 18.3 µM; TGI (SK-MEL-28 melanoma): 33.3 µM; GI50 (COLO 205 colon): 16500 nM; TGI (COLO 205 colon): 31.6 µM; GI50 (LOX IMVI melanoma): 17300 nM; TGI (LOX IMVI melanoma): 32.2 µM; GI50 (SK-OV-3 ovarian): 18300 nM; TGI (SK-OV-3 ovarian): 38 µM; GI50 (TK-10 renal): 19.2 µM; TGI (TK-10 renal): 34.5 µM; GI50 (U251 CNS): 17.8 µM; TGI (U251 CNS): 31.7 µM; GI50 (SNB-75 CNS): 16.3 µM; TGI (SNB-75 CNS): 31.1 µM

`CN(C)c1ccc(/C=N/S(=O)(=O)c2ccc(-n3c(-c4ccccc4)nc4c(Br)cc(Br)cc4c3=O)cc2)cc1` was tested. Which GI50 (MOLT-4 leukemia) did it give?
Its GI50 is 33300 nM.

And the TGI (MOLT-4 leukemia)?
Its TGI is greater than 80.5 µM.

And the GI50 (HCC-2998 colon)?
The GI50 was 51200 nM.

What about the TGI (HCC-2998 colon) of the same molecule?
The TGI was greater than 100 µM.

And the GI50 (KM12 colon)?
The GI50 was 32.3 µM.

And the TGI (KM12 colon)?
Its TGI is greater than 100 µM.

And the GI50 (SK-MEL-28 melanoma)?
Its GI50 is 43.6 µM.

What about the TGI (SK-MEL-28 melanoma) of the same molecule?
Its TGI is greater than 100 µM.

What about the GI50 (COLO 205 colon) of the same molecule?
The GI50 was 44900 nM.

And the TGI (COLO 205 colon)?
The TGI was greater than 100 µM.

And the GI50 (LOX IMVI melanoma)?
Its GI50 is 46100 nM.

And the TGI (LOX IMVI melanoma)?
The TGI was greater than 100 µM.

And the GI50 (SK-OV-3 ovarian)?
Its GI50 is 47200 nM.

And the TGI (SK-OV-3 ovarian)?
The TGI was greater than 100 µM.

And the GI50 (TK-10 renal)?
The GI50 was 45.8 µM.

What about the TGI (TK-10 renal) of the same molecule?
Its TGI is greater than 100 µM.

What about the GI50 (U251 CNS) of the same molecule?
Its GI50 is 40.7 µM.

And the TGI (U251 CNS)?
Its TGI is greater than 100 µM.

And the GI50 (SNB-75 CNS)?
Its GI50 is 24.7 µM.

What about the TGI (SNB-75 CNS) of the same molecule?
Its TGI is 71.3 µM.

Which results are given for `CC1(C)O[C@@H]2C[C@H]3[C@@H]4C[C@H](F)C5=CC(=O)C=C[C@]5(C)[C@@]4(F)[C@@H](O)C[C@]3(C)[C@]2(C(=O)CO)O1`?
TGI (MOLT-4 leukemia): > 100 µM; TGI (HCC-2998 colon): > 100 µM; TGI (KM12 colon): > 100 µM; TGI (SK-MEL-28 melanoma): > 100 µM; TGI (COLO 205 colon): > 100 µM; TGI (LOX IMVI melanoma): > 100 µM; TGI (SK-OV-3 ovarian): > 100 µM; TGI (TK-10 renal): > 100 µM; TGI (U251 CNS): > 100 µM; TGI (SNB-75 CNS): > 100 µM

How did the TGI (MOLT-4 leukemia) turn out when `COc1ccc(C(=O)C#Cc2c[nH]c(=O)[nH]c2=O)cc1` was run?
Its TGI is 8.19 µM.

And the TGI (HCC-2998 colon)?
Its TGI is 36.4 µM.

And the TGI (KM12 colon)?
The TGI was greater than 52.6 µM.

What about the TGI (SK-MEL-28 melanoma) of the same molecule?
Its TGI is 30.1 µM.

And the TGI (COLO 205 colon)?
The TGI was 24.8 µM.

And the TGI (LOX IMVI melanoma)?
The TGI was 9.52 µM.

What about the TGI (SK-OV-3 ovarian) of the same molecule?
The TGI was greater than 100 µM.

What about the TGI (TK-10 renal) of the same molecule?
The TGI was 23.3 µM.

And the TGI (U251 CNS)?
The TGI was 22.7 µM.

And the TGI (SNB-75 CNS)?
The TGI was 45.5 µM.

What does the source list for `Cc1cccc2c3c(sc12)C(c1ccc(F)cc1)C(C#N)=C(N)O3` (stereo not given)?
GI50 (MOLT-4 leukemia): 137 nM; TGI (MOLT-4 leukemia): 26.6 µM; GI50 (HCC-2998 colon): 311 nM; TGI (HCC-2998 colon): 9.75 µM; GI50 (KM12 colon): 0.064 µM; TGI (KM12 colon): 11.1 µM; GI50 (SK-MEL-28 melanoma): 1.97 µM; TGI (SK-MEL-28 melanoma): 20.7 µM; GI50 (COLO 205 colon): 280 nM; TGI (COLO 205 colon): 1.29 µM; GI50 (LOX IMVI melanoma): 60.8 nM; TGI (LOX IMVI melanoma): 5.2 µM; GI50 (SK-OV-3 ovarian): 1350 nM; TGI (SK-OV-3 ovarian): 27.8 µM; GI50 (TK-10 renal): 5.51 µM; TGI (TK-10 renal): 23 µM; GI50 (U251 CNS): 0.13 µM; TGI (U251 CNS): 12.6 µM; GI50 (SNB-75 CNS): 0.0236 µM; TGI (SNB-75 CNS): 0.0936 µM

Reference: PubChem BioAssay (NCI)
